Reference: paper PMC9503778, “Targeted Isolation of Antibiotic Brominated Alkaloids from the Marine Sponge Pseudoceratina durissima Using Virtual Screening and Molecular Networking” (Marine Drugs, 2022)
Converted amounts (≈) assume the structure as drawn. “And” between values parts separate entries of the source, which are not always exact repeats. Equal entries are not always repeated. Where two headings read alike, the source gives them in different places.

Key:
[1] = test system: C. albicans (yeast) ATCC 90028; experiment: Antimicrobial growth inhibition (CO-ADD), C. albicans; assay type: cell-based, Candida albicans; details: Candida albicans, ATCC90028; ATCC 90028; read-out: MIC C. albicans
Protocol: (§1) Compounds 1−3 and 5−12 were assayed against a selection of medically important pathogenic microorganisms (MRSA, E. coli, K. pneumoniae, A. baumanii, P. aeruginosa, C. albicans, C. neoformans), Table 4. […] To the best of our knowledge this compound had not been tested against any drug resistant strain of Gram-positive bacterium until this study.
(§2) The antimicrobial activity testing was performed by the Community for Antimicrobial Drug Discovery (CO-ADD). Compounds were assayed against a range of both Gram negative and Gram positive bacteria (see Supplementary Materials S3) including methicillin-resistant Staphylococcus aureus (MRSA) (G+), Escherichia coli (G-), Klebsiella pneumoniae (G-), Acinetobacter baumannii (G-), Pseudomonas aeruginosa (G-) together with two species of fungus (Candida albicans and Cryptococcus neoformans).
(§3) S3. Antimicrobial activity testing methodology
(§4) The compounds submitted to CO-ADD were evaluated in duplicate (n = 2) against seven microorganisms (five bacteria and two fungi) at a concentration of 32 µg/mL in a 384-well, non-binding surface plate (NBS) for each bacterial/fungal strain, keeping the final DMSO concentration to a maximum of 1% DMSO. All bacteria were cultured in cation-adjusted […]
(§5) Fungal strains were cultured for 3 days on Yeast Extract-Peptone Dextrose (YPD) agar at 30 °C. A yeast suspension of 1 x 10^6 to 5 x 10^6 CFU/mL (as determined by OD530) was prepared from five colonies. The suspension was subsequently diluted and added to each well of the compound-containing plates giving a final cell density of fungi suspension of 2.5 x 10^3 CFU/mL and a total volume of 50 µL. All plates were covered and incubated at 35 °C for 24 h without shaking. […]
(§6) 2 h. The absorbance was measured using a Biotek Synergy HTX plate reader. The percentage of growth inhibition was calculated for each well, using negative control (medium only) and positive control (bacteria without inhibitors) on the same plate as the references. The significance of inhibition values was determined by modified Z-scores, calculated using the median and MAD of the samples (no controls) on the same plate. Samples with inhibition value above 80% and Z-score above 2.5 for either replicate (n = 2 on different plates) were classed as actives.
(§7) Colistin and vancomycin were used as positive bacterial inhibitor standards for Gram-negative and Gram-positive bac-teria, respectively. Fluconazole was used as a positive fungal inhibitor standard for C. albicans and C. neoformans. The antibiotics were provided in four concentrations, with two above and two below its MIC value, and plated into the first eight wells of column 23 of the 384-well NBS plates. The quality control (QC) of the assays was determined by the antimicrobial controls and the Z’-factor (using positive and negative controls). Each plate was deemed to fulfil the qual- […]
(§8) full growth inhibition at their highest concentration, and no growth inhibition at their lowest concentration. The seven […]
(§9) test microorganisms were Staphylococcus aureus MRSA (ATCC 43300), Escherichia coli (ATCC 25922), Klebsiella pneu-moniae (ATCC 700603), Acinetobacter baumanii (ATCC19606), Pseudomonas aeruginosa (ATCC 27853), Candida albicans (ATCC 90028) and Cryptococcus neoformans var. grubii (H99; ATCC 208821).
(§10) S4. Anthelmintic activity testing methodology
Dose-response evaluations were carried out to estimate the half-maximal inhibitory concentrations (IC50 values) for compounds against Haemonchus contortus (Haecon-5 strain) exsheathed third-stage larvae (xL3s). H. contortus were maintained in experimental sheep and procured in accordance with the institutional animal ethics guidelines and the regulations of Australia (permit no. 1714374; University of Melbourne). Immediately prior to use, third-stage larvae (L3s) were exsheathed and sterilised by incubation in 0.15% (v/v) bleach at 38 °C for 20 min, followed by washes in sterile saline at room temperature (22-24 °C). […]

[2] = test system: C. neoformans var. grubii strain ATCC 208821; experiment: Antimicrobial growth inhibition (CO-ADD), C. neoformans; assay type: cell-based; details: Cryptococcus neoformans, ATCC208821; var. grubii ATCC 208821; read-out: MIC C. neoformans
[3] = test system: Mediterranean fish species Blennius sphinx; set-up: method as in PMID 15018063; details: cited from earlier work
[4] = test system: MRSA (G+) strain ATCC 43300; experiment: Antimicrobial growth inhibition (CO-ADD), MRSA; assay type: cell-based, Staphylococcus aureus; details: for MIC: Staphylococcus aureus, read-out: MIC MRSA
Protocol: as §1, §2, §3
(§11) The compounds submitted to CO-ADD were evaluated in duplicate (n = 2) against seven microorganisms (five bacteria and two fungi) at a concentration of 32 µg/mL in a 384-well, non-binding surface plate (NBS) for each bacterial/fungal strain, keeping the final DMSO concentration to a maximum of 1% DMSO. All bacteria were cultured in cation-adjusted Mueller-Hinton broth (CAMHB) at 37 °C overnight. A sample of each culture was then diluted 40-fold in fresh broth and incubated at 37 °C for 1.5-3 h. The resultant mid-log phase cultures were diluted (CFU/mL measured by OD600), then added to each well of the compound containing plates, giving a cell density of 5x10^5 CFU/mL and a total volume of 50 µL. All the plates were covered and incubated at 37 °C for 18 h without shaking. […] Inhibition of bacterial growth was determined measuring absorbance at 600 nm (OD600) using a Tecan M1000 Pro mon-ochromator plate reader. […]
as §6, §7, §8, §9, §10
(§12) Dose-response evaluations were carried out to estimate the half-maximal inhibitory concentrations (IC50 values) for compounds against Haemonchus contortus (Haecon-5 strain) exsheathed third-stage larvae (xL3s). H. contortus were maintained in experimental sheep and procured in accordance with the institutional animal ethics guidelines and the regulations of Australia (permit no. 1714374; University of Melbourne). Immediately prior to use, third-stage larvae (L3s) were exsheathed and sterilised by incubation in 0.15% (v/v) bleach at 38 °C for 20 min, followed by washes in […]

[5] = test system: K. pneumoniae (G-) strain ATCC 700603; experiment: Antimicrobial growth inhibition (CO-ADD), K. pneumoniae; assay type: cell-based, Klebsiella pneumoniae; details: for % inhibition K. pneumoniae: 32 µg/mL; for % inhibition K. pneumoniae / inhibition at 32 µg/mL: duplicate (n = 2) values; for inhibition at 32 µg/mL / MIC: Klebsiella pneumoniae; for inhibition at 32 µg/mL: ATCC700603, 32 µg/mL, read-out: % inhibition K. pneumoniae; for MIC: ATCC700603, read-out: MIC K. pneumoniae
Protocol: as §1, §2, §3, §11, §6, §7, §8, §9, §10, §12

[6] = test system: P. auruginosa (G-) strain ATCC 27853; experiment: Antimicrobial growth inhibition (CO-ADD), P. aeruginosa; assay type: cell-based, Pseudomonas aeruginosa; details: ATCC 27853; for MIC: Pseudomonas aeruginosa, ATCC27853, read-out: MIC P. aeruginosa
Protocol: as §1, §2, §3, §11, §6, §7, §8, §9, §10, §12

human red blood cells = experiment: Haemolysis assay (CO-ADD); assay type: cell-based
[7] = test system: E. Coli (G-) strain ATCC 25922; experiment: Antimicrobial growth inhibition (CO-ADD), E. coli; assay type: cell-based, Escherichia coli; details: for % inhibition E. coli: 32 µg/mL; for % inhibition E. coli / inhibition at 32 µg/mL: duplicate (n = 2) values; for inhibition at 32 µg/mL / MIC: Escherichia coli; for inhibition at 32 µg/mL: ATCC25922, 32 µg/mL, read-out: % inhibition E. coli; for MIC: ATCC25922, read-out: MIC E. coli
Protocol: as §1, §2, §3, §11, §6, §7, §8, §9, §10, §12

[8] = test system: A. baumannii (G-) strain ATCC 19606; experiment: Antimicrobial growth inhibition (CO-ADD), A. baumannii; assay type: cell-based, Acinetobacter baumannii; details: for MIC: Acinetobacter baumannii, ATCC19606, read-out: MIC A. baumannii
Protocol: as §1, §2, §3, §11, §6, §7, §8, §9, §10, §12

[9] = Cytotoxicity assay (CO-ADD); assay type: cell-based; details: human, human embryonic kidney cells
[10] = test system: C. neoformans var. grubii strain ATCC 208821; experiment: Antimicrobial growth inhibition (CO-ADD), C. neoformans; assay type: cell-based, Cryptococcus neoformans; details: duplicate (n = 2) values
Protocol: as §1, §2, §3, §4, §5
as §6, with “Growth inhibition of C. albicans was determined measuring absorbance at 530 nm (OD530), while the growth inhibition of C. neoformans was determined measuring the difference in absorbance between 600 and 570 nm (OD600-570), after the addition of resazurin (0.001% final concentration) and incubation at 35 °C for an additional 2 h.” for “2 h.”
as §7, §8, §9, §10
Dose-response evaluations were carried out to estimate the half-maximal inhibitory concentrations (IC50 values) for compounds against Haemonchus contortus (Haecon-5 strain) exsheathed third-stage larvae (xL3s). H. contortus were maintained in experimental sheep and procured in accordance with the institutional animal ethics guidelines and the […]

[11] = ATCC 43300, MIC = concentration at which growth inhibited by ≥80%, range 0.25−32 µg/mL
[12] = ATCC 25922, MIC = concentration at which growth inhibited by ≥80%
[13] = 32 µg/mL, duplicate (n = 2) values

Molecule	MIC [1] [µg/mL]	MIC [2] [µg/mL]	MIC [4, 11] [µg/mL]	% inhibition K. pneumoniae [5]	MIC ([5]; ATCC 700603) [µg/mL]	MIC [6] [µg/mL]	Haemolysis (HC10) (human red blood cells)	% inhibition E. coli [7]	MIC [7, 12] [µg/mL]	MIC ([8]; ATCC 19606) [µg/mL]	CC50 [9] [µg/mL]	also measured
OC(Cn1cncn1)(Cn1cncn1)c1ccc(F)cc1F [Fluconazole, reference compound]	0.125	8 (≈ 26.1 µM)	–	–	–	–	–	–	–	–	–	–
aplysinamisin-1 [reference compound]	–	–	–	–	–	–	–	–	–	–	–	feeding deterrent activity, Blennius sphinx [3]: significant feeding deterrent activity
COC1(OC)C(Br)=CC(O)(CC#N)C=C1Br [Compound 7, 2-(3,5-dibromo-1-hydroxy-4,4-dimethoxycyclohexa-2,5-dien-1-yl)acetonitrile]	> 32	> 32	> 32	13.3%	> 32	> 32	>32 µg/mL	6.2%	> 32	> 32	> 32	inhibition at 32 µg/mL [5]: 10.6%; inhibition at 32 µg/mL [7]: 11.2%
CC/C(=C(\c1ccccc1)c1ccc(OCCN(C)C)cc1)c1ccccc1 [Tamoxifen, reference compound]	–	–	–	–	–	–	–	–	–	–	9 (≈ 24.2 µM)	–
CN[C@H](CC(C)C)C(=O)N[C@H]1C(=O)N[C@@H](CC(N)=O)C(=O)N[C@H]2C(=O)N[C@H]3C(=O)N[C@H](C(=O)N[C@H](C(=O)O)c4cc(O)cc(O)c4-c4cc3ccc4O)[C@H](O)c3ccc(c(Cl)c3)Oc3cc2cc(c3O[C@@H]2O[C@H](CO)[C@@H](O)[C@H](O)[C@H]2O[C@H]2C[C@](C)(N)[C@H](O)[C@H](C)O2)Oc2ccc(cc2Cl)[C@H]1O [Vancomycin, reference compound]	–	–	–	–	–	–	–	–	–	–	–	MIC [4]: 1 µg/mL
COC(=O)Cc1c(O)cc(Br)c(O)c1Br [Compound 10, subereaphenol B]	> 32	> 32	> 32	9.3%	> 32	> 32	>32 µg/mL	15.8% and 6.4%	> 32	> 32	> 32	% inhibition C. neoformans ([10]; 32 µg/mL): 8.5%; inhibition at 32 µg/mL ([10]; Cryptococcus neoformans, ATCC208821, 32 µg/mL, read-out: % inhibition C. neoformans): 12.4%; inhibition at 32 µg/mL [5]: 6.1%; % inhibition A. baumannii [8, 13]: −1.4% and −9.2%
COC(=O)NCCCCNC(=O)C1=NO[C@]2(C=C(Br)C(OC)=C(Br)[C@@H]2O)C1 [Compound 12, subereamolline C]	> 32	> 32	> 32	14.0% and 5.6%	> 32	> 32	>32 µg/mL	6.4%	> 32	> 32	> 32	% inhibition MRSA [4, 13]: 0.4% and 8.2%; inhibition at 32 µg/mL [7]: 12.3%
CC[C@H](C)[C@H](NC(=O)CN)C(=O)NCC(=O)N[C@@H](C)C(=O)N[C@H](C(=O)N[C@@H](CC(C)C)C(=O)N[C@@H](CCCCN)C(=O)N[C@H](C(=O)N[C@@H](CC(C)C)C(=O)N[C@H](C(=O)N[C@H](C(=O)NCC(=O)N[C@@H](CC(C)C)C(=O)N1CCC[C@H]1C(=O)N[C@@H](C)C(=O)N[C@@H](CC(C)C)C(=O)N[C@H](C(=O)N[C@@H](CO)C(=O)N[C@@H](Cc1c[nH]c2ccccc12)C(=O)N[C@H](C(=O)N[C@@H](CCCCN)C(=O)N[C@@H](CCCNC(=N)N)C(=O)N[C@@H](CCCCN)C(=O)N[C@@H](CCCNC(=N)N)C(=O)N[C@@H](CCC(N)=O)C(=O)N[C@@H](CCC(N)=O)C(N)=O)[C@@H](C)CC)[C@@H](C)CC)[C@@H](C)O)[C@@H](C)O)C(C)C)C(C)C [Melittin, reference compound]	–	–	–	–	–	–	Melittin: 2.7 µg/mL	–	–	–	–	–
Colistin [reference compound]	–	–	–	–	–	–	–	–	–	–	–	MIC K. pneumoniae ([5]; ATCC 700603): Colistin: 0.25 µg/mL; MIC P. aeruginosa [6]: Colistin: 0.25 µg/mL; MIC E. coli [7, 12]: Colistin: 0.125 µg/mL; MIC A. baumannii ([8]; ATCC 19606): Colistin: 0.25 µg/mL
